Entries after “also recorded” stand apart in the source; their conditions may differ.
Columns and labels:
cardiomyocytes = assay: Immunostaining for ANF protein and α-actinin (sarcomere); format: cell-based, rat
Procedure: Immunostaining. Glass coverslips were coated with laminin (Invitrogen, Carlsbad, Calif.) by solublizing laminin in 1× PBS (40 μg/ml), by dipping the coverslips in the solution and by allowing them to air-dry. Cells were treated for 24 hrs, washed, fixed 10 min. with 3.7% formaldehyde, washed with 1× PBS and permeabolized with 1× PBS containing 3% BSA and 0.1% NP-40 (Sigma, St. Louis, Mo.). Primary Antibodies were in 1× PBS containing 3% BSA and 0.1% NP-40 for 30 min, then washed three times in 1× PBS. The secondary FITC or TRITC antibodies (Vector Laboratories, Inc., Burlingame, Calif.) were incubated (1:200) in same buffer solution as the primary antibodies, then washed in 1× PBS, covered and subsequently visualized. Images were captured using a digital camera (Hamamatsu Photonics, Hamamatsu City, Japan).

[1] = system: rat neonatal cardiomyocytes; assay: Gene chip array analysis; format: cell-based; settings: two-or-more-fold difference
Procedure: FIGS. 7A-B. TSA induces the activation of genes that are involved in cardiomyocyte differentiation. […] (FIG. 7B) Four genes were inactivated by phenylephrine and activated by TSA (results from one phenylephrine chip, two phenylephrine/TSA chips, and one TSA chip.)
Gene chip and analysis. RNA was isolated using Trizol (Invitrogen, Carlsbad, Calif.) from untreated, phenylephrine-treated, TSA-treated, and phenylephine/TSA co-treated rat neonatal cardiomyocytes. The RNAs were prepared and hybridized on U34A chips (Affymetrix, Inc., Santa Clara, Calif.) according to Affymetrix protocols. The intensity of hybridization was detected by and changes in gene expression were determined and analyzed by Micro Array Suite 5.0 (Affymetrix, Inc., Santa Clara, Calif.).

ANF locus / NRSE = settings: prior data; cited from earlier work
ras transformed cells = settings: Taunton et al., 1996; cited from earlier work
[2] = system: acetylated lysine residues / Histone H3 in cardiac myocytes; assay: Detection of acetylated lysine residues (Western blot, immunofluorescence); format: cell-based, rat; settings: exposure for 24 hours
Procedure: (§1) Cell culture. Ventricular myocytes from one-day-old rats were plated at low density in MEM with 5% calf serum, and studied in serum-free MEM. Cultures were treated with PE (#P6126, Sigma-Aldrich Corp., St. Louis, Mo.), IL-1 (#501-RL, R&D Systems, Minneapolis, Minn.), TSA (#GR-309, BIOMOL Research Laboratories, Inc., Plymouth Meeting, Pa.) or their vehicles (ascorbic acid for PE; bovine serum albumin for IL-1; dimethyl sulfoxide for TSA).
Detection of acetylated lysine residues. Total cell extract was subjected to Western blot analysis using antibodies from Cell Signaling Technology (Beverly, Mass.) (acetylated lysine antibody: #9441, acetylated histone H3 antibody at Lysine 9: #9671, acetylated histone H3 antibody at Lysine 23: #9674, histone H3 antibody: #9712). Nuclear localization of acetylated histone H3 was examined by immunostaining using the same antibodies.

mouse model = settings: Takahashi et al, 1996; cited from earlier work
[3] = system: ANF, αSK-actin, αMyHC, βMyHC RNA in cardiomyocytes; assay: RNA dot blot of fetal gene program; format: cell-based, rat
Procedure: FIGS. 5A-B. Treatment of cardiomyocytes with HDAC inhibitors blocks the fetal gene program associated with cardiomyocyte hypertrophy. […] The graphs represent three or more independent experiments.
Dot Blot analysis. Total RNA was isolated from cardiomyocytes that were either untreated, treated with phenylephrine, treated with TSA, or co-treated with phenylephrine and TSA. One microgram of RNA was blotted onto Nitrocellulose (Bio-Rad, Hercules, Calif.) and hybridized at 50° C. for 14 hrs with end-labeled oligos. (ANF, 5′-[…]-3, SEQ ID NO 1; αSK actin5′-[…]-3′, SEQ ID NO2; αMyHC,5′[…]-3′, SEQ ID NO 3; βMyHC5′-[…]-3′, SEQ ID NO 4; GAPDH5′-[…]-3′, SEQ ID NO 5). The blots were washed twice in 2×SSC/0.5% SDS solution and exposed to film (Kodak, Rochester, N.Y.) or phosphoimager (Amersham Bioscience, Sunnyvale, Calif.). The intensity of the hybridization of the probes was measured using ImageQuant® (Amersham Bioscience, Sunnyvale, Calif.).

[4] = system: SERCA, α-/β-MyHC, ANP, BNP, cardiac α-actin mRNA in cardiac myocytes; assay: Myocyte-specific mRNA expression by RNase protection assay; format: cell-based, rat
Procedure: FIGS. 1A-C. TSA alters agonist-induced gene repression. Cultured cardiac myocytes were treated with PE (20 μmol/L) or IL-1 (1 ng/mL) for 48 hrs. TSA (30 nmol/L) was added 30 min. prior to treatment with PE or IL-1. Myocyte-specific mRNA expression (SERCA2a (FIG. 1A), αMyHC (FIG. 1B), βMyHC (FIG. 1C) was assayed in 5 μg total RNA by RNase protection assay. Mean data are from 4 cultures, and are presented as % of control after normalization to GAPDH signal.
as §1
Quantification of myocyte hypertrophy and myocyte-specific mRNA expression. Growth of cultured myocytes was quantified by content of radiolabeled protein after continuous incubation with ^14C-phenylalanine. For evaluation of the myocyte gene program, total RNA was extracted from cells with TRIZol (GIBCO, Carlsbad, Calif.) and used in RNase protection assay with probes for SERCA, α-/β-MyHC, ANP, BNP, and cardiac α-actin. All samples also included glyceraldehyde phosphate dehydrogenase (GAPDH) as an internal control for RNA loading.

CC(/C=C/C(=O)NO)=C\[C@@H](C)C(=O)c1ccc(N(C)C)cc1 [TSA, Trichostatin A]
ANF protein accumulation, inhibitor alone (cardiomyocytes; 24 hrs): lacked accumulation of ANF protein
cell size (cardiomyocytes; TSA alone): did not change size
organization of the sarcomere (α-actinin), inhibitor alone (cardiomyocytes; TSA alone): lacked organization of the sarcomere
organization of the sarcomere with growth stimulants (cardiomyocytes; phenylephrine, serum or ET-1): lacked fully organized sarcomeres
ANF protein accumulation induced by phenylephrine or serum (cardiomyocytes; with phenylephrine or serum): dramatically reduced ANF protein accumulation
expression of big Tau-microtubule-associated protein, ubiquitin carboxyl-terminal hydrolase, Thy-1 cell-surface glycoprotein, MyHC class I antigen ([1]; genes down-regulated by phenylephrine): up-regulated by TSA
expression of cytochrome oxidase subunit VIII, mouse T-complex protein, insulin growth factor binding protein-3 ([1]; genes up-regulated by phenylephrine): down-regulated by TSA
ANF expression at low dose (ANF locus / NRSE): can induce the ANF expression
acetylation (ras transformed cells): induce hyperacetylation
morphology of ras transformed cells (ras transformed cells): cause reversion of ras transformed cells to normal morphology
protein acetylation (acetylated lysine residues, Histone H3) [2]: effectively increased acetylated lysine residues
immunosuppression (mouse model): induces immunsuppression
αMyHC expression ([3]; TSA treatment): induced the expression of αMyHC; also recorded: stimulated the expression of αMyHC
phenylephrine-induced endogenous ANF RNA expression ([3]; phenylephrine 100 μM, TSA 85 nM, sodium butyrate 5 mM, HC-toxin 5 ng/ml): prevented the phenylephrine-induced ANF response; also recorded: blocks the accumulation of ANF message
phenylephrine-induced αSK-actin expression ([3]; phenylephrine co-treatment): suppression of other genes activated by the hypertrophic stimulant; also recorded: lack of gene activation
phenylephrine-induced βMyHC expression ([3]; phenylephrine co-treatment): down-regulating the fetal myosin chain isoform; also recorded: prevented the activation of βMyHC
αMyHC (so in the source) expression in presence of IL-1 alone ([4]; IL-1 alone): increased αMyHC expression
IL-1 suppression of PE induction of αMyHC (so in the source) ([4]; PE/IL-1 co-treated cells): reversed the IL-1 effect
basal SERCA2a mRNA expression ([4]; TSA 30 nmol/L, 48 hrs): increased the basal expression
basal αMyHC mRNA expression ([4]; TSA 30 nmol/L, 48 hrs): increased the basal expression
reversal of αMyHC repression in IL-1 treated (or co-treated) cells ([4]; TSA pre-treatment, IL-1): less prominent
PE effect on αMyHC expression ([4]; TSA pre-treatment, PE): nearly complete reversal of the PE effect
repression of SERCA expression by hypertrophic stimuli ([4]; TSA pre-treatment, PE 20 μmol/L or IL-1 1 ng/mL): substantial reversal in the repression of SERCA expression
gene expression of cardiac α-actin, ANP, or BNP ([4]; any hypertrophic treatment condition): did not affect gene expression
basal expression or PE-induction of αMyHC (so in the source) ([4]; basal or PE): had no effects on either the basal expression or PE-induction
